# Laboratory results reported in patent publication US4318858A, “Thioethylamide derivatives” (Shionogi & Co., Ltd., priority 1979, dated 1982).
# System: gastric acid secretion
# Assay: gastric acid secretion inhibiting activity in Donryu male rats (pH value in the stomach)
# Assay type: in vivo
# Settings: Rattus norvegicus, oxalate
row,SMILES,ED50
1,CN(C)Cc1ccc(CSCCNC(=O)c2ccc(S(N)(=O)=O)cc2)o1.O=C(O)C(=O)O [N-[2-[[(5-dimethylaminomethyl-2-furyl)-methyl]thio]ethyl]-4-sulfamoylbenzamide oxalate],2.54 mg/kg

# Molecular target: T1, histamine H2 receptor (Cavia porcellus, UniProt P47747)
# T1 construct: guinea pig's enucleated atrium; from tissue; host or cells: guinea pig isolated ("enucleated") atrium
# T1 sequence (P47747 whole entry): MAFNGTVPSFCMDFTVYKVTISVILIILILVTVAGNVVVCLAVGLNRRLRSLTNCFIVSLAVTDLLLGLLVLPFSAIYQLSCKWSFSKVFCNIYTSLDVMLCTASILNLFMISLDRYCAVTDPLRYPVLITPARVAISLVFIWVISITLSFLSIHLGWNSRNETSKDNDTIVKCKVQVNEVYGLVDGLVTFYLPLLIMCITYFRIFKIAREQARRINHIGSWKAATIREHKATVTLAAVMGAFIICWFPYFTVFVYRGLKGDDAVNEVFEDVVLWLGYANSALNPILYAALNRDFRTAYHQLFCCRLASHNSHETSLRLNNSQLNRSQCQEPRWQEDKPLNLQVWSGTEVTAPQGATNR
# Assay: inhibition of the palpitation number of guinea pig's enucleated atrium (histamine antagonism)
# Assay type: cell-based
# Settings: compounds (I) as the oxalates
# Description: The pA2 value is defined as a negative logarithm of the concentratio
# of the compound (I) required to shift the doseresponse of histamine to th
# high concentration side by 2fold. [Ariens, E.J., Molecular Pharmacology,
# (1964), Academic Press, New York and London].
row,SMILES,Kb
1,Cc1cc(CSCCNC(=O)c2ccc(S(N)(=O)=O)cc2)sc1CN1CCCC1 [Test No. 10],2190 nM
2,CN(C)Cc1ccc(CSCCNC=O)o1 [Test No. 6],1860 nM
3,O=C(NCCSCc1ccc(CN2CCCC2)s1)c1ccc([N+](=O)[O-])cc1 [Test No. 9],912 nM
4,CC(C)c1cc(CN2CCCC2)sc1CSCCNC(=O)c1cccnc1 [Test No. 11],501 nM
5,COC(=O)c1ccc(C(=O)NCCSCc2ccc(CN3CCCC3)s2)cc1,550 nM
6,COC(=O)c1ccc(C(=O)NCCSCc2ccc(CN(C)C)o2)cc1 [Test No. 4],468 nM
7,CC=CC=CC(=O)NCCSCc1ccc(CN(C)C)o1 [Test No. 5],1910 nM
8,CN(C)Cc1ccc(CSCCNC(=O)c2ccc(S(N)(=O)=O)cc2)o1 [Test No. 7],151 nM
9,Cc1cc(CSCCNC(=O)c2ccc([N+](=O)[O-])cc2)oc1CN1CCCC1 [Test No. 12],851 nM

# System: not listed separately
# Assay: acute toxicity in mice
# Settings: mouse, in vivo, iv, oxalate, read-out: acute toxicity LD50 i.v.
row,SMILES,LD50
1,CN(C)Cc1ccc(CSCCNC(=O)c2ccc(S(N)(=O)=O)cc2)o1.O=C(O)C(=O)O [N-[2-[[(5-dimethylaminomethyl-2-furyl)-methyl]thio]ethyl]-4-sulfamoylbenzamide oxalate],150 mg/kg

# Same assay, conditions: mouse, in vivo, po, oxalate, read-out: acute toxicity LD50 p.o.
row,SMILES,LD50
1,CN(C)Cc1ccc(CSCCNC(=O)c2ccc(S(N)(=O)=O)cc2)o1.O=C(O)C(=O)O [N-[2-[[(5-dimethylaminomethyl-2-furyl)-methyl]thio]ethyl]-4-sulfamoylbenzamide oxalate],> 1000 mg/kg
